Assay results: patent US11787781B2, “Inhibiting ataxia telangiectasia and RAD3-related protein (ATR)” (Celator Pharmaceuticals, Inc., priority 2016, dated 2023)
pIC50: −log10 of the molar value. Read-outs that look alike come from different tables or passages of the source.

Experiments:
[1] = system: panel of lung cancer cell lines; test: […]-GLO cell viability, free drug monotherapy and combination screening; type: cell-based
Method: In vitro efficacy study was done using […]-GLO Luminescent Cell Viability Assay (Promega) with Corning Cat #3707 384 well White Clear bottom plates. Cells were plated (1000 cells/well) in 384 well format and allowed to incubate at 37° C. for 24 hours. Monotherapy drugs were added at the 24 hr time point and then allowed to incubate at 37° C. for 24 hours. At the 48 hr time point the drugs in media were removed, washed with PBS, and fresh media was added. Cells were then allowed to incubate at 37° C. for 72 hours. […]
At the 120 hr time point media was removed and […]-GLO (CTG) reagent was added (1:1 ratio with PBS). Plates were read using a luminometer (Envision Multilabel reader). […]
Data was analyzed using an in-house algorithm developed using Matlab (Mathworks, Natick Mass.). […]
Data quality control was performed to ensure that the concentration range is optimal according to these rules: (1) if the lowest concentration kills more than 70% of the cells the concentration range is deemed too potent (2) if the highest concentration kills less than 30% of the cells, the concentration range is deemed low or the cell line is too resistant. Additionally, goodness of the fit was evaluated using R^2 and R^2<0.9 is flagged as a bad fit.

U2OS cells = test: Cell death and growth assay, U2OS cells; type: cell-based; details: set concentrations, in combination with Gemcitabine
Method: U20S and all other cells were grown in (RPMI) supplemented with 10% fetal bovine serum (FBS) and antibiotics. Imaging and time-lapse compatible NucLight red cell lines were generated as recommend by Essen Bioscience Inc. using lentiviral particles, infection and puromycin selection protocols.
The results were compared back to a prediction of cell growth and death with the combination of the two compounds (FIG. 18A).
In all cases, relative cell proliferation is reduced with the combinations compared to the drugs alone (FIG. 21B-C).

SUM149 cells = test: Cell cycle stage profile, SUM149 cells; type: cell-based; details: 24 hours after addition of SN38 and ATR inhibitor
ALK1/ACVRL1 = ALK1/ACVRL1 (Homo sapiens (Human), UniProt P37023); test: Broad kinase panel screening; type: biochemical
Source text: (§1) Example 16: Broad Kinase Panel Screening (359)
(§2) Major hits out of 359 were: ALK, ARK, c-MER, CLK1, DYRK, GSK3a, GSK3b, FLT2, FLT3, MLK1, SIK2, TNIK, and YSK4.

ALK2/ACVR1 = ALK2/ACVR1 (Homo sapiens (Human), UniProt Q04771); test: Broad kinase panel screening; type: biochemical
Source text: as §1, §2

ARK5/NUAK1 = ARK5/NUAK1 (Homo sapiens (Human), UniProt O60285); test: Broad kinase panel screening; type: biochemical
Source text: as §1, §2

CLK1 = CLK1 (Homo sapiens (Human), UniProt P49759); test: Broad kinase panel screening; type: biochemical
Source text: as §1, §2

CLK4 = CLK4 (Homo sapiens (Human), UniProt Q9HAZ1); test: Broad kinase panel screening; type: biochemical
Source text: as §1, §2

DDR1 = DDR1 (Homo sapiens (Human), UniProt Q08345); test: Broad kinase panel screening; type: biochemical
Source text: as §1, §2

DYRK2 = DYRK2 (Homo sapiens (Human), UniProt Q92630); test: Broad kinase panel screening; type: biochemical
Source text: as §1, §2

FLT4/VEGFR3 = FLT4/VEGFR3 (Homo sapiens (Human), UniProt P35916); test: Broad kinase panel screening; type: biochemical
Source text: as §1, §2

GSK3a = GSK3a (Homo sapiens (Human), UniProt P49840); test: Broad kinase panel screening; type: biochemical
Source text: as §1, §2

GSK3b = GSK3b (Homo sapiens (Human), UniProt P49841); test: Broad kinase panel screening; type: biochemical
Source text: as §1, §2

MLK1/MAP3K9 = MLK1/MAP3K9 (Homo sapiens (Human), UniProt P80192); test: Broad kinase panel screening; type: biochemical
Source text: as §1, §2

MLK2/MAP3K10 = MLK2/MAP3K10 (Homo sapiens (Human), UniProt Q02779); test: Broad kinase panel screening; type: biochemical
Source text: as §1, §2

MLK3/MAP3K11 = MLK3/MAP3K11 (Homo sapiens (Human), UniProt Q16584); test: Broad kinase panel screening; type: biochemical
Source text: as §1, §2

PIM1 = PIM1 (Homo sapiens (Human), UniProt P11309); test: Broad kinase panel screening; type: biochemical
Source text: as §1, §2

PKCmu/PRKD1 = PKCmu/PRKD1 (Homo sapiens (Human), UniProt Q15139); test: Broad kinase panel screening; type: biochemical
Source text: as §1, §2

PKD2/PRKD2 = PKD2/PRKD2 (Homo sapiens (Human), UniProt Q9BZL6); test: Broad kinase panel screening; type: biochemical
Source text: as §1, §2

RET = RET (Homo sapiens (Human), UniProt P07949); test: Broad kinase panel screening; type: biochemical
Source text: as §1, §2

SIK2 = SIK2 (Homo sapiens (Human), UniProt Q9H0K1); test: Broad kinase panel screening; type: biochemical
Source text: as §1, §2

TNIK = TNIK (Homo sapiens (Human), UniProt Q9UKE5); test: Broad kinase panel screening; type: biochemical
Source text: as §1, §2

YSK4/MAP3K19 = YSK4/MAP3K19 (Homo sapiens (Human), UniProt Q56UN5); test: Broad kinase panel screening; type: biochemical
Source text: as §1, §2

GSK3b, sequence (P49841 whole entry, species assumed): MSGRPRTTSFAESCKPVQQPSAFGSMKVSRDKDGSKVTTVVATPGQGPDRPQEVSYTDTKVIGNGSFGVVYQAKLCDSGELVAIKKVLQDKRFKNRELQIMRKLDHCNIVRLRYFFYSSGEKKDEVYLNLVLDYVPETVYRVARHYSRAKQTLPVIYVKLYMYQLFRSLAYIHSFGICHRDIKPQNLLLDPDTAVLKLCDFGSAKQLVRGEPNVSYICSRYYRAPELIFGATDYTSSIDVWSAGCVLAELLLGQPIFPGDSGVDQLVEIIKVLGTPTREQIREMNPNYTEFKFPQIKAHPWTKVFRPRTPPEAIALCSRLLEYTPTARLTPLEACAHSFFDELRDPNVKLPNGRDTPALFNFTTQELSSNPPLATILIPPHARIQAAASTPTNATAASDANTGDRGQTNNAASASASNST
GSK3a, sequence (P49840 whole entry, species assumed): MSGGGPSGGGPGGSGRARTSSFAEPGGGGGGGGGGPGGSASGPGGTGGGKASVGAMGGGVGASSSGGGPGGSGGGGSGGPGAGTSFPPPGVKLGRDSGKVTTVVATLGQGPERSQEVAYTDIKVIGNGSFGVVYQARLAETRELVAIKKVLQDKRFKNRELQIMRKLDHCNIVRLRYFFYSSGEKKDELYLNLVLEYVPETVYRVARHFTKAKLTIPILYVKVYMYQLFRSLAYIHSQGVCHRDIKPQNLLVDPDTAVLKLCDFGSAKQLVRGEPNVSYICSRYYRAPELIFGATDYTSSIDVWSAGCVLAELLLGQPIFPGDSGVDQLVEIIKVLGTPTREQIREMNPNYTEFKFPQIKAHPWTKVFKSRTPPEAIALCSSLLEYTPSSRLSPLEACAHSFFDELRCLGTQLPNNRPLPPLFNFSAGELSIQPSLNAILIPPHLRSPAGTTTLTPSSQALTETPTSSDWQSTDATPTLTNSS
MLK3/MAP3K11, sequence (Q16584 whole entry): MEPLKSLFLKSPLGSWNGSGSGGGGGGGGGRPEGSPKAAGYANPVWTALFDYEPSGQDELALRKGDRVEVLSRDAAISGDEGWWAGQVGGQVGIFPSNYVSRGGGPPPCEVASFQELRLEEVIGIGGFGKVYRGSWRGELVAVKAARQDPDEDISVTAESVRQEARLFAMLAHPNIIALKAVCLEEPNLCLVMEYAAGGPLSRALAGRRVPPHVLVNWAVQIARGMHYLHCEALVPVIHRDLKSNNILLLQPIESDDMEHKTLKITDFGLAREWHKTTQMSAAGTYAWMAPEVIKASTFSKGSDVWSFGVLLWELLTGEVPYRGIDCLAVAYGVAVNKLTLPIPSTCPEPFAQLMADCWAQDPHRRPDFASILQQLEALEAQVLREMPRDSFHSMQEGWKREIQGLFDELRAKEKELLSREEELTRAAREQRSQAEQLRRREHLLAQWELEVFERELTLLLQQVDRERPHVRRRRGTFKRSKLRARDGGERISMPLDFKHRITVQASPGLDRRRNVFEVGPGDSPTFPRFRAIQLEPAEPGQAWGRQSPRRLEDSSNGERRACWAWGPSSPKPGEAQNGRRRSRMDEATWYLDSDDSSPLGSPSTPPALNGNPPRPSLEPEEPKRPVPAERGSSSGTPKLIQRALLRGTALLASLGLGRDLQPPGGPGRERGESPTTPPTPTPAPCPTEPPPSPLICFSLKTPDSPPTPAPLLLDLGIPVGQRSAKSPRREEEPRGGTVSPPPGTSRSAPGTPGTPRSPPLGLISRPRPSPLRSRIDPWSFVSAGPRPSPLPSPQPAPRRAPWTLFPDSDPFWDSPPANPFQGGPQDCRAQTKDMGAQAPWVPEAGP
PIM1, sequence (P11309 whole entry, species assumed): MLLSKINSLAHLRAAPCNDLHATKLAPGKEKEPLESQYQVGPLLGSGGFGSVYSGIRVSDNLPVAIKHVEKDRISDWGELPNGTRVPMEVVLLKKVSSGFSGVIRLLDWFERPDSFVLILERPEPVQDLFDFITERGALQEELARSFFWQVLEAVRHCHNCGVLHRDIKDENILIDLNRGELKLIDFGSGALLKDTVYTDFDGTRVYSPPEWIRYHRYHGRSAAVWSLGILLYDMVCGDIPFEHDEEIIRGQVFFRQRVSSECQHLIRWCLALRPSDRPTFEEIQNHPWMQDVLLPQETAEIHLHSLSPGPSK
FLT4/VEGFR3, sequence (P35916 25-1363): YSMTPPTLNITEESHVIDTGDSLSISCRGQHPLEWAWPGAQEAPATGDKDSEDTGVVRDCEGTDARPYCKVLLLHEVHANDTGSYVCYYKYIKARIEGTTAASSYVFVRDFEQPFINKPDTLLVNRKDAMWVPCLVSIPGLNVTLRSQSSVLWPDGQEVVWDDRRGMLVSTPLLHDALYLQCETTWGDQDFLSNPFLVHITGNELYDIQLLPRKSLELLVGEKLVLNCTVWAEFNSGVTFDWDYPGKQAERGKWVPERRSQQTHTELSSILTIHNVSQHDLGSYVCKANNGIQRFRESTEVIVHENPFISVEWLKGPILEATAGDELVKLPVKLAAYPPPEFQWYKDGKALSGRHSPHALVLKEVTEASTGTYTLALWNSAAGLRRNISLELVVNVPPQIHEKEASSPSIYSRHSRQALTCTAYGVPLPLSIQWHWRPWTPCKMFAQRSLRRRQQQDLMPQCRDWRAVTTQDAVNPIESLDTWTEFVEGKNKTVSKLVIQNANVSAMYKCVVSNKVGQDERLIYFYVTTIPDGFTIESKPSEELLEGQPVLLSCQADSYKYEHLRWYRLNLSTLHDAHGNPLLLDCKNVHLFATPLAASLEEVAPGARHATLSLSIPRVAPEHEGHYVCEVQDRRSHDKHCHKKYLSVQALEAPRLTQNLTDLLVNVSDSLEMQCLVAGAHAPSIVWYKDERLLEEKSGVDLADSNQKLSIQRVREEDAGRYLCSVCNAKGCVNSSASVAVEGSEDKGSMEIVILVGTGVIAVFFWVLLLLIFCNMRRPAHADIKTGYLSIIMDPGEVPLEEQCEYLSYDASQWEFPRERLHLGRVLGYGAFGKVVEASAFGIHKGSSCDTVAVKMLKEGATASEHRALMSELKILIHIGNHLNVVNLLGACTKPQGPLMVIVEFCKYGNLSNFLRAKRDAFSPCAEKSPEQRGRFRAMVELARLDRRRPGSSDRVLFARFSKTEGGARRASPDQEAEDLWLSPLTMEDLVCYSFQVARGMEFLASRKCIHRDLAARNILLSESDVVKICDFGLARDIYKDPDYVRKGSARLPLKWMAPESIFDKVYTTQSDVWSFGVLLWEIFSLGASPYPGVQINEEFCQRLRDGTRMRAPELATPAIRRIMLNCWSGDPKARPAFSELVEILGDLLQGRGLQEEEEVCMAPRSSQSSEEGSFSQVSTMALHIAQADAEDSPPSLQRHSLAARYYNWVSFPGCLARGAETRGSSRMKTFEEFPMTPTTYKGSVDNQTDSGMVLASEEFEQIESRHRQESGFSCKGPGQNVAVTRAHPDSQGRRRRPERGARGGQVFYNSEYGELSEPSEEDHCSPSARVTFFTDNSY
RET, sequence (P07949 29-1114, species assumed): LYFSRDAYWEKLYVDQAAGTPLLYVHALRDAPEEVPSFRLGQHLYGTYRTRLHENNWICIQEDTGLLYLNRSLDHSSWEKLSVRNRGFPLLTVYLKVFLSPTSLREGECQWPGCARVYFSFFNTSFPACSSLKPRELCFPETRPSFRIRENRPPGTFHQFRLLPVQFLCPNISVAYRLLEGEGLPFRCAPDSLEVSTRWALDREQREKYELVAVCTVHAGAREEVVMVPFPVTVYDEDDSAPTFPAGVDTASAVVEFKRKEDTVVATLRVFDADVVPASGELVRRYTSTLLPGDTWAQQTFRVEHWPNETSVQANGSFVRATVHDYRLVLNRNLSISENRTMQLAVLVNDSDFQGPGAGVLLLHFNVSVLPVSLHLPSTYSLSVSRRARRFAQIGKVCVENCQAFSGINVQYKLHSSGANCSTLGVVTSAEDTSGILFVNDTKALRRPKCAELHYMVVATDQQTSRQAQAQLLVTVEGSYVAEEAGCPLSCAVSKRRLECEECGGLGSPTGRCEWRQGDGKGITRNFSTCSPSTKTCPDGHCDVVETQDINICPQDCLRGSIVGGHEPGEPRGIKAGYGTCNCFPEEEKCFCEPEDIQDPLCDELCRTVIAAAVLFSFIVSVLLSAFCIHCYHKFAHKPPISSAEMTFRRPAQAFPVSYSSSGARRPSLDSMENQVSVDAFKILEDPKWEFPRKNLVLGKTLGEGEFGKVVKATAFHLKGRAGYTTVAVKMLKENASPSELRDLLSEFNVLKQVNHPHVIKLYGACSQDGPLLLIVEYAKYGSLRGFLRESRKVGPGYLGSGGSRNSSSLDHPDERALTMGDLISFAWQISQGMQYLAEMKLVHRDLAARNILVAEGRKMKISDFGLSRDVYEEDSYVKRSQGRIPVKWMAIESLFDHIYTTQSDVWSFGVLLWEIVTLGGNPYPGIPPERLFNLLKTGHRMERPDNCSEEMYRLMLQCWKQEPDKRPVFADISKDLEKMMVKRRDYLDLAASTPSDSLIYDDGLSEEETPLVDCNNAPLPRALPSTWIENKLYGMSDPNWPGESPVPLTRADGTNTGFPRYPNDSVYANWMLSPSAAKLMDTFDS
CLK1, sequence (P49759 whole entry): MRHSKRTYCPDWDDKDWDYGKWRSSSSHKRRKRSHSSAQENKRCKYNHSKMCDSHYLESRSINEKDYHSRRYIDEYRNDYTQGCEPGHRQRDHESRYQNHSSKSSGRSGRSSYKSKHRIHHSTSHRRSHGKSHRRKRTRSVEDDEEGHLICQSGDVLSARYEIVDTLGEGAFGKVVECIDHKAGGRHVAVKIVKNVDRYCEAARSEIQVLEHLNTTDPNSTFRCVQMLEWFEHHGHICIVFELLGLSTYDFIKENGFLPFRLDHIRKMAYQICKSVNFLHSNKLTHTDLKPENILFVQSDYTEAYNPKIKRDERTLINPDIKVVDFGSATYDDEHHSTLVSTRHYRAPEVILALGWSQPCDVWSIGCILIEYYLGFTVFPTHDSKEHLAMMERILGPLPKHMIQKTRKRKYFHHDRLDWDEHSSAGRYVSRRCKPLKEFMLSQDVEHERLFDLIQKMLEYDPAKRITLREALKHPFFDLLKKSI

Which “potency (IC50) of chemotherapeutic agent combined with ATR inhibitor, vs Compound 6” value ([1]; 1 μg/ml ATR inhibitor with Carboplatin, Gemcitabine or Compound B) does the source give for `CN(C)CCC1CCN(CCS(=O)(=O)c2ccc(-c3cnc(N)c(C(=O)Nc4ccccc4)n3)cc2)CC1` [Compound 5, 3-amino-6-(4-((2-(4-(2-(dimethylamino)ethyl)piperidin-1-yl)ethyl)sulfonyl)phenyl)-N-phenylpyrazine-2-carboxamide] here?
The value was “more potent”.

What about the “monotherapy cell kill IC50, folds lower than Compound 6” value ([1]; monotherapy, 24 h exposure) of the same compound?
Its value is roughly 3 folds.

And the “relative cell proliferation vs the drugs alone” value (U2OS cells)?
The value was “reduced”.

What about the “cell cycle stage profile vs controls” value (SUM149 cells) of the same compound?
Its value is “larger percentage of cells are arrested in G2 phase”.

What about the pIC50 (ALK1/ACVRL1) of the same compound?
The pIC50 was 7.45.

And the pIC50 (ALK2/ACVR1)?
Its pIC50 is 7.78.

What about the pIC50 (ARK5/NUAK1) of the same compound?
The pIC50 was 7.77.

What about the pIC50 (CLK1) of the same compound?
The pIC50 was 6.87.

And the pIC50 (CLK4)?
The pIC50 was 7.05.

And the pIC50 (DDR1)?
Its pIC50 is 6.72.

And the pIC50 (DYRK2)?
The pIC50 was 7.14.

What about the pIC50 (FLT4/VEGFR3) of the same compound?
The pIC50 was 7.20.

And the IC50 (GSK3a; read-out: IC50 nM)?
Its IC50 is 5.73 nM.

What about the pIC50 (GSK3a; read-out: IC50) of the same compound?
The pIC50 was 8.24.

What about the IC50 (GSK3b; read-out: IC50 nM) of the same compound?
Its IC50 is 63 nM.

What about the pIC50 (GSK3b; read-out: IC50) of the same compound?
The pIC50 was 7.20.

And the pIC50 (MLK1/MAP3K9)?
Its pIC50 is 7.95.

And the pIC50 (MLK2/MAP3K10)?
Its pIC50 is 8.02.

And the IC50 (MLK3/MAP3K11; read-out: IC50 nM)?
The IC50 was 5.9 nM.

What about the pIC50 (MLK3/MAP3K11; read-out: IC50) of the same compound?
The pIC50 was 8.23.

And the IC50 (PIM1; read-out: IC50 nM)?
The IC50 was 72.6 nM.

What about the pIC50 (PIM1; read-out: IC50) of the same compound?
The pIC50 was 7.14.

And the pIC50 (PKCmu/PRKD1)?
Its pIC50 is 6.87.

What about the pIC50 (PKD2/PRKD2) of the same compound?
The pIC50 was 6.80.

What about the pIC50 (RET) of the same compound?
The pIC50 was 7.11.

What about the pIC50 (SIK2) of the same compound?
Its pIC50 is 6.83.

What about the pIC50 (TNIK) of the same compound?
Its pIC50 is 6.96.

And the pIC50 (YSK4/MAP3K19)?
The pIC50 was 7.53.
